# In ChEMBL document CHEMBL6115010, “Targeting glioma with heteroaromatic alkaloids: A review of potential therapeutics” (Bioorg Med Chem, 2025):
# Experiments:
# U-87 MG [1] = assay: Antiproliferative activity against human U-87 MG cells assessed as reduction in cell growth incubated for 72 hrs by MTS assay; assay type: functional, cell-based, U-87MG ATCC
# T98G [2] = assay: Antiproliferative activity against human T98G cells assessed as reduction in cell growth incubated for 72 hrs by MTS assay; assay type: functional, cell-based
# [3] = Antiproliferative activity against human GSC#1 cells assessed as reduction in cell growth incubated for 72 hrs by MTS assay; assay type: functional, cell-based; conditions: GSC#1, 72 h
# U-251 [4] = assay: Growth inhibition of human U-251MG cells measured for 48 hrs by SRB assay; assay type: functional
# U-87 MG [5] = assay: Antiproliferative activity against human U-87 MG cells assessed as inhibition of cell growth measured for 72 hrs; assay type: functional, cell-based, U-87MG ATCC
# A 172 [6] = assay: Antiproliferative activity against human A-172 cells assessed as inhibition of cell growth measured for 72 hrs; assay type: functional, cell-based; conditions: A 172, 72 h
# U-251 [7] = assay: Antiproliferative activity against human U-251MG cells assessed as inhibition of cell growth measured for 72 hrs; assay type: functional, cell-based; conditions: U-251, 72 h
# T98G [8] = assay: Antiproliferative activity against human T98G cells assessed as inhibition of cell growth measured for 72 hrs; assay type: functional, cell-based
# [9] = Antiproliferative activity against human D-54MG cells assessed as inhibition of cell growth measured for 72 hrs; assay type: functional, cell-based; conditions: D54MG
# A 172 [10] = assay: Cytotoxicity against human A-172 cells assessed as reduction in cell viability measured after 24 hrs by MTT assay; assay type: functional, cell-based; conditions: A 172, 24 h
# U-87 MG [11] = assay: Cytotoxicity against human U-87 MG cells assessed as reduction in cell viability measured after 24 hrs by MTT assay; assay type: functional, cell-based, U-87MG ATCC
# [12] = Toxicity in human U-87MG cells xenografted in nude mouse assessed as lethal dose at 10 mg/kg, ip administered once daily for 20 days relative to control; assay type: organism-based; conditions: in vivo, time 20 day
# U-118-MG = assay: Cytotoxicity against human U-118-MG cells assessed as reduction in cell viability measured after 24 hrs by MTT assay; assay type: functional, cell-based
# U-251 [13] = assay: Cytotoxicity against human U-251MG cells assessed as reduction in cell viability measured after 24 hrs by MTT assay; assay type: functional, cell-based; conditions: U-251, 24 h
# SK-N-SH [14] = assay: Induction of apoptosis in human SK-N-SH cells assessed as early apoptotic cells at 100 micromol/L incubated for 48 hrs by Annexin V-FITC/Propidium Iodide staining based flow cytometry analysis (reference value: 10.3 %); assay type: functional; conditions: dose 100 µmol/L, at 100 µM
# T98G [15] = assay: Cytotoxicity against human T98G cells assessed as reduction in cell viability at 400 uM measured for 24 hrs relative to control; assay type: functional
# U-251 [16] = assay: Cytotoxicity against human U-251MG cells assessed as cell growth inhibition incubated for 24 hrs by MTT assay; assay type: functional, cell-based; conditions: U-251, 24 h
# SH-SY5Y = assay: Cytotoxicity against human SH-SY5Y cells assessed as reduction in cell viability incubated for 24 hrs by MTT assay; assay type: functional, cell-based
# U-87 MG [17] = assay: Cytotoxicity against human U-87 MG cells assessed as reduction in cell viability at 400 uM measured for 24 hrs relative to control; assay type: functional, U-87MG ATCC
# SK-N-SH [18] = assay: Induction of apoptosis in human SK-N-SH cells assessed as early apoptotic cells at 200 micromol/L incubated for 48 hrs by Annexin V-FITC/Propidium Iodide staining based flow cytometry analysis (reference value: 10.3 %); assay type: functional; conditions: dose 200 µmol/L, at 200 µM
# U-251 [19] = assay: Antiproliferative activity against human U-251MG cells assessed as reduction in cell growth measured for 48 hrs by MTT assay; assay type: functional, cell-based; conditions: U-251, 48 h
# C6 [20] = assay: Antiproliferative activity against rat C6 cells assessed as reduction in cell viability measured for 96 hrs by MTT assay; assay type: functional, cell-based; conditions: C6, 96 h
# U-87 MG [21] = assay: Antiproliferative activity against human U-87 MG cells assessed as reduction in cell viability measured for 96 hrs by MTT assay; assay type: functional, cell-based, U-87MG ATCC
# U-87 MG [22] = assay: Antitumor activity against human U-87MG cells xenografted in athymic nude mouse model assessed as tumor growth inhibition at 30 mg/kg, ip administered once daily for 12 days relative to control; assay type: functional, U-87MG ATCC; conditions: 288 h, time 12 day, read-out: TGI
# [23] = Antiproliferative activity against mouse GL26 cells assessed as reduction in cell viability measured for 96 hrs by MTT assay; assay type: functional, cell-based; conditions: GL26, 96 h
# SNB-19 = assay: Antiproliferative activity against human SNB-19 cells assessed as reduction in cell viability measured for 96 hrs by MTT assay; assay type: functional, cell-based; conditions: SNB-19, 96 h
# 9L = assay: Antiproliferative activity against rat 9L cells assessed as reduction in cell viability measured for 96 hrs by MTT assay; assay type: functional, cell-based
# C6 [24] = assay: Antitumor activity against rat C6 cells implanted in athymic nude mouse model assessed as tumor growth inhibition at 30 mg/kg, ip administered once daily for 12 days and measured after 34 days relative to control; assay type: functional; conditions: C6, 816 h, time 34 day, read-out: TGI
# C6 [25] = assay: Antitumor activity against rat C6 cells implanted in athymic nude mouse model assessed as tumor growth inhibition at 30 mg/kg, sc administered once daily for 12 days and measured after 34 days relative to control; assay type: functional; conditions: C6, 288 h, time 12 day, read-out: TGI
# U-87 MG [26] = assay: Antitumor activity against human U-87 MG cells implanted with chicken egg assessed as reduction in tumor weight at 10 uM measured after 7 days by microscopic analysis (reference value: 27.87+/-4.7 mg); assay type: functional, U-87MG ATCC; conditions: time 7 day
# U-251 [27] = assay: Antiproliferative activity against human U-251MG cells; assay type: functional, cell-based
# U-87 MG [28] = assay: Antiproliferative activity against human U-87-MG cells; assay type: functional, cell-based, U-87MG ATCC
# Hs 683 = assay: Cytotoxicity against human Hs 683 cells by MTT assay; assay type: functional, cell-based
# [29] = Cytotoxicity against human U373 MG cells by MTT assay; assay type: functional, cell-based, U-373MG ATCC
# T98G [30] = assay: Antiproliferative activity against human T98G cells assessed as inhibition of cell growth measured for 72 hrs by MTT assay; assay type: functional, cell-based
# T98G [31] = assay: Cytotoxicity against human T98G cells assessed as inhibition of cell growth measured for 72 hrs by MTT assay; assay type: functional, cell-based
# U-251 [32] = assay: Antiproliferative activity against human U-251MG cells assessed as inhibition of cell growth measured for 72 hrs by MTT assay; assay type: functional, cell-based; conditions: U-251, 72 h
# U-251 [33] = assay: Cytotoxicity against human U-251MG cells assessed as inhibition of cell growth measured for 72 hrs by MTT assay; assay type: functional, cell-based; conditions: U-251, 72 h
# C6 [34] = assay: Cytotoxicity against rat C6 cells assessed as reduction in cell viability incubated for 48 hrs by trypan blue dye based assay; assay type: functional; conditions: C6, 48 h
# U-87 MG [35] = assay: Cytotoxicity against human U-87 MG cells assessed as reduction in cell viability in presence of Delta-Tocotrienol incubated for 72 hrs by neutral red uptake assay; assay type: functional, cell-based, U-87MG ATCC
# U-87 MG [36] = assay: Synergistic antiproliferative activity against human U-87 MG cells assessed as combination index at 10 uM incubated for 48 hrs in presence of 1.5 microg/ml Delta-Tocotrienol; assay type: functional, U-87MG ATCC
# MRC5 = assay: Cytotoxicity against human MRC5 cells assessed as reduction in cell viability incubated for 72 hrs by neutral red uptake assay; assay type: functional, cell-based; conditions: MRC5, 72 h
# U-87 MG [37] = assay: Cytotoxicity against human U-87 MG cells assessed as reduction in cell viability incubated for 72 hrs by neutral red uptake assay; assay type: functional, cell-based, U-87MG ATCC
# U-87 MG [38] = assay: Cytotoxicity against human U-87 MG cells assessed as reduction in cell viability in presence of Jerantinine B incubated for 72 hrs by neutral red uptake assay; assay type: functional, cell-based, U-87MG ATCC
# U-251 [39] = assay: Antiproliferative activity against human U-251MG cells assessed as reduction in cell growth measured at 10 uM for 48 hrs by MTT assay relative to control; assay type: functional; parameters: scale not given: the % may be the effect or the level left
# [40] = Antitumor activity against rat C6/ACNUcells implanted in Wistar rat assessed as increase in life span at 1 mg/kg relative to control; assay type: functional, C6/ACNU
# [41] = Cytotoxicity against rat ACNU-resistant C6 cells assessed as reduction in cell growth incubated for 24 hrs by MTT assay; assay type: functional, cell-based
# [42] = Cytotoxicity against rat ACNU-resistant C6 cell assessed as reduction in cell growth in presence of reserpine at 10 uM incubated for 24 hrs by MTT assay; assay type: functional, cell-based
# [43] = Cytotoxicity against rat ACNU-resistant C6/ACNU cells assessed as reduction in cell growth in presence of reserpine at 20 uM incubated for 24 hrs by MTT assay; assay type: functional, cell-based
# [44] = Cytotoxicity against rat ACNU-resistant C6/ACNU cells assessed as reduction in cell growth in presence of reserpine at 10 uM incubated for 24 hrs by MTT assay; assay type: functional, cell-based
# [45] = Cytotoxicity against rat ACNU-resistant C6/ACNU cells assessed as reduction in cell growth incubated for 24 hrs by MTT assay; assay type: functional, cell-based
# [46] = Cytotoxicity against rat ACNU-resistant C6 cell assessed as reduction in cell growth in presence of reserpine at 20 uM incubated for 24 hrs by MTT assay; assay type: functional, cell-based
# [47] = Antiproliferative activity against human U373 MG cells assessed as reduction in cell growth measured for 72 hrs by MTT assay; assay type: functional, cell-based, U-373MG ATCC
smiles,measurement,setting,value
CC[C@]12C=CC(CC(C)=O)N3CC[C@]4(C(=C(C(=O)OC)C1)Nc1ccccc14)[C@@H]32 (stereo partly drawn),IC50,U-87 MG [1],1.7 µM
same,IC50,T98G [2],4.3 µM
same,IC50,[3],1.3 µM
C/C=C1/CN2C3C[C@H]1[C@H](CO)[C@@H]2Cc1c3n(C)c2ccccc12,GI50,U-251 [4],9.5 µM
O=C(/C=C/c1ccc(O)cc1)NCCc1c[nH]c2ccc(O)cc12 [N-P-COUMAROYL SEROTONIN],IC50,U-87 MG [5],48 µM
same,IC50,A 172 [6],62 µM
same,IC50,U-251 [7],77 µM
same,IC50,T98G [8],68 µM
same,IC50,[9],81 µM
COc1cc2c(cc1OC)[C@@]13CCN4CC5=CCO[C@H]6CC(=O)N2[C@H]1[C@H]6[C@H]5C[C@H]43 [BRUCINE],IC50,A 172 [10],527 µM
same,IC50,U-87 MG [11],604 µM
same,LD50 at 480 h,[12],13.2 mg/kg
same,IC50,U-118-MG,536 µM
same,IC50,U-251 [13],614 µM
Nc1ncnc2c1ncn2[C@@H]1O[C@H](CO)C[C@H]1O [CORDYCEPIN],Activity,SK-N-SH [14],29.8%
same,Activity,T98G [15],76%
same,IC50,U-251 [16],250 µM
same,IC50,SH-SY5Y,175 µM
same,Activity,U-87 MG [17],35%
same,Activity,SK-N-SH [18],29.8%
CC(C)(O)[C@H]1O[C@H]2CC[C@@]3(C)[C@@](O)(CC[C@H]4Cc5c([nH]c6ccccc56)[C@@]43C)C2=CC1=O [PAXILLINE],IC50,U-251 [19],~0.013 µM
CC(C)=CCC/C(C)=C/CC/C(C)=C/CN1C(=O)c2cccc(O)c2Nc2c(O)cc(O)cc21 [DIAZEPINOMICIN],IC50,C6 [20],4.3 µM
same,IC50,U-87 MG [21],10.9 µM
same,inhibition in vivo at 30 mg/kg,U-87 MG [22],36%
same,IC50,[23],8.9 µM
same,IC50,SNB-19,5.3 µM
same,IC50,9L,8.3 µM
same,inhibition in vivo at 30 mg/kg,C6 [24],66%
same,inhibition in vivo at 30 mg/kg,C6 [25],60%
COc1cc2c3cc1Oc1c(OC)c(OC)cc4c1[C@@H](Cc1ccc(O)c(c1)Oc1ccc(cc1)C[C@@H]3N(C)CC2)N(C)CC4 [BERBAMINE],Activity,U-87 MG [26],5.28 mg
C[C@@H](O)c1cc2ccncc2c(=O)[nH]1,IC50,U-251 [27],13.4 µM
same,IC50,U-87 MG [28],7.9 µM
CC(C)[C@@]12NC(=O)[C@@H](Cc3c1[nH]c1ccccc31)n1c2nc2ccccc2c1=O,IC50,Hs 683,50 µM
same,IC50,[29],44 µM
COc1cc(/C=C/C(=O)NCCc2c[nH]c3ccc(O)cc23)ccc1O [N-FERULOYL SEROTONIN],IC50,T98G [30],730 µM
same,IC50,T98G [31],193 µM
same,IC50,U-251 [32],590 µM
same,IC50,U-251 [33],238 µM
COc1cc(C2(O)C(=O)N=C(N)N2C)ccc1O (stereo not drawn),IC50,C6 [34],155 µM
CC[C@@]12CC(C(=O)OC)=C3Nc4cc(OC)c(O)cc4[C@@]34CCN(C[C@@H]3O[C@@H]31)[C@@H]24 [JERANTININE B],IC50,U-87 MG [35],0.19 µg/mL
same,CI,U-87 MG [36],0.85
same,IC50,MRC5,2.83 µg/mL
same,IC50,U-87 MG [37],0.74 µg/mL
same,IC50,U-87 MG [38],0.74 µg/mL
Clc1ccccc1C(c1ccccc1)(c1ccccc1)n1ccnc1 [CLOTRIMAZOLE],Activity,U-251 [39],70%
Cc1ncc(CNC(=O)N(CCCl)N=O)c(N)n1.Cl [NIMUSTINE HYDROCHLORIDE],Activity,[40],143%
same,IC50,[41],8.3 µg/mL
same,IC50,[42],4.1 µg/mL
same,IC50,[43],2.5 µg/mL
same,IC50,[44],8 µg/mL
same,IC50,[45],120 µg/mL
same,IC50,[46],3.1 µg/mL
O=C1NC(=O)c2c1c1[nH]cnc1c1[nH]c3ccccc3c21 [GRANULATIMIDE],IC50,[47],6 µM
